# pEC50, pIC50: −log10 of the molar value. Where two headings read alike, the source gives them in different places.
# How the values were obtained:
# F1F0-ATPase = molecular target: T1, F1F0-ATPase (Bos taurus, UniProt P13621); assay: Inhibition of F1F0-ATPase activity in synthesizing ATP; format: biochemical; conditions: inhibition of ATP synthesis by F1F0-ATPase; read-out: ATP Syn IC50
# T1 construct: from tissue
# Ramos cells = assay: Cytotoxicity in Ramos cells; format: cell-based; conditions: cytotoxicity in Ramos cells, read-out: Ramos Cell EC50
SMILES,pIC50 (F1F0-ATPase),pEC50 (Ramos cells; Homo sapiens),pEC50 (Ramos cells)
CC(N/C(=N/C(=O)c1ccc(F)c(F)c1)Nc1cc(C(F)(F)F)[nH]n1)c1ccc(Cl)cc1 (stereo not drawn) [Compound A-29],> 5.00,> 5.00,–
O=C(/N=C(/NCc1ccc(F)cc1Cl)Nc1cc(C(F)(F)F)[nH]n1)c1ccc(Cl)cc1 [Compound A-30],> 5.00,> 5.00,–
O=C(/N=C(/NCc1ccc(F)c(Cl)c1)Nc1cc(C(F)(F)F)[nH]n1)c1ccc(Cl)cc1 [Compound A-31],> 5.00,> 5.00,–
O=C(/N=C(/NCc1ccc(Cl)c(F)c1)Nc1cc(C(F)(F)F)[nH]n1)c1ccc(Cl)cc1 [Compound A-32],> 5.00,> 5.00,–
O=C(/N=C(/NCc1ccc(Cl)cc1F)Nc1cc(C(F)(F)F)[nH]n1)c1ccc(Cl)cc1 [Compound A-33],> 5.00,> 5.00,–
CC(N/C(=N/C(=O)c1ccc(Cl)cc1)Nc1cc(C(F)(F)F)[nH]n1)c1ccccc1Cl (stereo not drawn) [Compound A-34],> 5.00,> 5.00,–
CC(N/C(=N/C(=O)c1ccc(Cl)cc1)Nc1cc(C(F)(F)F)[nH]n1)c1cccc(Cl)c1 (stereo not drawn) [Compound A-35],> 5.00,> 5.00,–
CC(N/C(=N/C(=O)c1ccc(Cl)cc1)Nc1cc(C(F)(F)F)[nH]n1)c1ccc(Cl)cc1 (stereo not drawn) [Compound A-36],> 5.00,> 5.00,–
CC(C)(C)N/C(=N/C(=O)c1ccc(Cl)cc1)Nc1n[nH]cc1C#N [Compound A-37],> 5.00,< 5.00,–
CC1(N/C(=N/C(=O)c2ccc(Cl)cc2)Nc2n[nH]c3ccccc23)CCC1 [Compound A-38],> 5.00,> 5.00,–
O=C(/N=C(/NCc1cc(F)c(F)c(F)c1)Nc1cc(C(F)(F)F)[nH]n1)c1ccc(F)c(F)c1 [Compound A-39],> 5.00,–,–
CC(C)(C)N/C(=N/C(=O)c1ccc(Cl)c(F)c1)Nc1cc(C(F)(F)F)[nH]n1 [Compound A-40],> 5.00,> 5.00,–
O=C(/N=C(\Nc1cc(C(F)(F)F)[nH]n1)NC1CCCCCC1)c1ccc(F)c(F)c1 [Compound A-41],> 5.00,> 5.00,–
CC(C)(C)CN/C(=N/C(=O)c1ccc(Cl)cc1)Nc1cc(C(F)(F)F)n[nH]1 [Compound A-42],> 5.00,> 5.00,–
CC(C)(C)CN/C(=N/C(=O)c1ccc(F)c(F)c1)Nc1cc(C(F)(F)F)n[nH]1 [Compound A-43],> 5.00,> 5.00,–
CN(/C(=N\C(=O)c1ccc(F)c(F)c1)NC(C)(C)C)c1cc(C(F)(F)F)[nH]n1 [Compound A-44],< 5.00,< 5.00,–
Cc1cc(N/C(=N\C(=O)c2ccc(F)c(F)c2)Nc2cc(F)cc(Cl)c2)n[nH]1 [Compound A-45],> 5.00,< 5.00,–

SMILES,pIC50 (F1F0-ATPase),pEC50 (Ramos cells; Homo sapiens),pEC50 (Ramos cells)
C[C@@H](N/C(=N/C(=O)c1ccc(F)c(F)c1)Nc1cc(C(F)(F)F)[nH]n1)c1ccc(Cl)cc1 [Compound A-46],> 5.00,> 5.00,–
C[C@H](N/C(=N/C(=O)c1ccc(F)c(F)c1)Nc1cc(C(F)(F)F)[nH]n1)c1ccc(Cl)cc1 [Compound A-47],> 5.00,> 5.00,–
Cn1nc(C(F)(F)F)cc1N/C(=N\C(=O)c1ccc(C(F)(F)F)cc1)Nc1cc(F)cc(Cl)c1 [Compound A-48],> 5.00,> 5.00,–
CC(C)(C)N/C(=N/C(=O)c1ccc(C(F)(F)F)cc1)Nc1cc(-c2ccc(F)cc2)[nH]n1 [Compound A-50],> 5.00,> 5.00,–
CC(C)(C)CN/C(=N/C(=O)c1ccc(C(F)(F)F)cc1)Nc1cc(C(F)(F)F)n[nH]1 [Compound A-51],> 5.00,> 5.00,–
O=C(/N=C(/Nc1cc(F)cc(Cl)c1)Nc1cc(C(F)F)[nH]n1)c1ccc(F)c(F)c1 [Compound A-52],> 5.00,> 5.00,–
CC(C)(C)N/C(=N/C(=O)c1ccc(C(F)(F)F)cc1)Nc1cc(C(F)F)[nH]n1 [Compound A-53],> 5.00,> 5.00,–
CC(C)(C)N/C(=N/C(=O)c1ccc(Cl)cc1)Nc1cc(C(F)F)[nH]n1 [Compound A-54],> 5.00,> 5.00,–
COC(=O)c1cc(N/C(=N\C(=O)c2ccc(C(F)(F)F)cc2)NC(C)(C)C)[nH]n1 [Compound A-339],–,–,< 5.00
CC(C)(C)N/C(=N/C(=O)c1ccc(Cl)c(F)c1)Nc1cc(-c2cc(F)cc(F)c2)n[nH]1 [Compound A-354],–,–,> 5.00
CC1(N/C(=N/C(=O)c2ccc(Cl)c(F)c2)Nc2cc(-c3cc(F)cc(F)c3)n[nH]2)CCCC1 [Compound A-355],–,–,< 5.00
CCC(C)N/C(=N/C(=O)c1ccc(Cl)c(F)c1)Nc1cc(-c2cc(F)cc(F)c2)n[nH]1 (stereo not drawn) [Compound A-356],–,–,> 5.00
CC(C)(N/C(=N/C(=O)c1ccc(Cl)c(F)c1)Nc1cc(-c2cc(F)cc(F)c2)n[nH]1)C(F)(F)F [Compound A-357],–,–,< 5.00
CC1(N/C(=N/C(=O)c2ccc(Cl)c(F)c2)Nc2cc(-c3cc(F)cc(F)c3)n[nH]2)CC1 [Compound A-358],–,–,> 5.00
COCC(C)(C)NC(=NC(=O)c1cccc(C#N)c1)Nc1cc(-c2ccc(F)cc2)n[nH]1 [Compound A-504],> 5.00,–,–
COCCOCC(C)(C)N/C(=N/C(=O)c1ccc(F)cc1)Nc1cc(-c2ccc(F)cc2)n[nH]1 [Compound A-507],–,–,> 5.00
CC(C)CN/C(=N/C(=O)c1cccc(C#N)c1)Nc1cc(-c2ccc(F)cc2)n[nH]1 [Compound A-508],–,–,> 5.00

# Now from value to compound, other results behind:
pIC50 (F1F0-ATPase),SMILES,pEC50 (Ramos cells; Homo sapiens),pEC50 (Ramos cells)
> 5.00,O=C(/N=C(/NCC(F)(F)F)Nc1cc(C(F)(F)F)[nH]n1)c1ccc(C(F)(F)F)cc1 [Compound A-1],> 5.00,–
> 5.00,O=C(/N=C(/NCc1cccc(C(F)(F)F)c1)Nc1cc(C(F)(F)F)[nH]n1)c1ccc(C(F)(F)F)cc1 [Compound A-2],> 5.00,–
> 5.00,O=C(/N=C(/NCc1ccc(F)c(Cl)c1)Nc1cc(C(F)(F)F)[nH]n1)c1ccc(Cl)c(F)c1 [Compound A-3],> 5.00,–
> 5.00,CC(C)(C)N/C(=N/C(=O)c1ccc(Cl)cc1)Nc1cc(C(F)(F)F)[nH]n1 [Compound A-4],> 5.00,–
> 5.00,O=C(/N=C(/NCC(F)(F)F)Nc1cc(C(F)(F)F)[nH]n1)c1ccc(Cl)cc1 [Compound A-5],> 5.00,–
> 5.00,CC1(N/C(=N/C(=O)c2ccc(Cl)cc2)Nc2cc(C(F)(F)F)[nH]n2)CCC1 [Compound A-6],> 5.00,–
> 5.00,O=C(/N=C(\Nc1cc(C(F)(F)F)[nH]n1)NC(C1CC1)C1CC1)c1ccc(Cl)cc1 [Compound A-7],> 5.00,–
> 5.00,O=C(/N=C(/NCc1ccccc1C(F)(F)F)Nc1cc(C(F)(F)F)n[nH]1)c1ccc(F)c(F)c1 [Compound A-8],> 5.00,–
> 5.00,O=C(/N=C(/NCc1ccccc1C(F)(F)F)Nc1cc(C(F)(F)F)n[nH]1)c1ccc(Cl)cc1 [Compound A-9],> 5.00,–
> 5.00,O=C(/N=C(/NCc1cccc(C(F)(F)F)c1)Nc1cc(C(F)(F)F)n[nH]1)c1ccc(Cl)cc1 [Compound A-10],> 5.00,–
> 5.00,O=C(/N=C(/NCC(F)(F)F)Nc1cc(C(F)(F)F)n[nH]1)c1ccc(F)c(F)c1 [Compound A-11],> 5.00,–
> 5.00,CC(C)(C)N/C(=N/C(=O)c1ccc(F)c(F)c1)Nc1cc(C(F)(F)F)n[nH]1 [Compound A-12],> 5.00,–
> 5.00,CC(C)(C)N/C(=N/C(=O)c1ccc(C(F)(F)F)cc1)Nc1cc(C(F)(F)F)n[nH]1 [Compound A-13],> 5.00,–
> 5.00,O=C(/N=C(\Nc1cc(C(F)(F)F)[nH]n1)NC1CCCCCC1)c1ccc(C(F)(F)F)cc1 [Compound A-14],> 5.00,–
> 5.00,CC(C)(C)c1cc(N/C(=N\C(=O)c2ccc(Cl)cc2)NC(C2CC2)C2CC2)n[nH]1 [Compound A-15],> 5.00,–
> 5.00,CC(C)(C)c1cc(N/C(=N\C(=O)c2ccc(Cl)cc2)NCC(F)(F)F)n[nH]1 [Compound A-16],> 5.00,–
> 5.00,CC1(N/C(=N/C(=O)c2ccc(Cl)cc2)Nc2cc(C(C)(C)C)[nH]n2)CCC1 [Compound A-17],> 5.00,–
> 5.00,O=C(/N=C(/NCc1ccc(F)cc1Cl)Nc1cc(C(F)(F)F)[nH]n1)c1ccc(C(F)(F)F)cc1 [Compound A-18],> 5.00,–
> 5.00,O=C(/N=C(/NCc1ccc(F)c(Cl)c1)Nc1cc(C(F)(F)F)[nH]n1)c1ccc(C(F)(F)F)cc1 [Compound A-19],> 5.00,–
> 5.00,O=C(/N=C(/NCc1ccc(Cl)c(F)c1)Nc1cc(C(F)(F)F)[nH]n1)c1ccc(C(F)(F)F)cc1 [Compound A-20],> 5.00,–
> 5.00,O=C(/N=C(/NCc1ccc(Cl)cc1F)Nc1cc(C(F)(F)F)[nH]n1)c1ccc(C(F)(F)F)cc1 [Compound A-21],> 5.00,–
> 5.00,CC(N/C(=N/C(=O)c1ccc(C(F)(F)F)cc1)Nc1cc(C(F)(F)F)[nH]n1)c1ccccc1Cl (stereo not drawn) [Compound A-22],> 5.00,–
> 5.00,CC(N/C(=N/C(=O)c1ccc(C(F)(F)F)cc1)Nc1cc(C(F)(F)F)[nH]n1)c1ccc(Cl)cc1 (stereo not drawn) [Compound A-23],> 5.00,–
> 5.00,O=C(/N=C(/NCc1ccc(F)cc1Cl)Nc1cc(C(F)(F)F)[nH]n1)c1ccc(F)c(F)c1 [Compound A-24],> 5.00,–
> 5.00,O=C(/N=C(/NCc1ccc(F)c(Cl)c1)Nc1cc(C(F)(F)F)[nH]n1)c1ccc(F)c(F)c1 [Compound A-25],> 5.00,–
> 5.00,O=C(/N=C(/NCc1ccc(Cl)c(F)c1)Nc1cc(C(F)(F)F)[nH]n1)c1ccc(F)c(F)c1 [Compound A-26],> 5.00,–
> 5.00,O=C(/N=C(/NCc1ccc(Cl)cc1F)Nc1cc(C(F)(F)F)[nH]n1)c1ccc(F)c(F)c1 [Compound A-27],> 5.00,–
> 5.00,CC(N/C(=N/C(=O)c1ccc(F)c(F)c1)Nc1cc(C(F)(F)F)[nH]n1)c1ccccc1Cl (stereo not drawn) [Compound A-28],> 5.00,–
